According to patent US10597388B2, “Pyridazinone herbicides” (FMC CORPORATION, priority 2014, dated 2020):

Key:
Assay in all cases: Test C greenhouse herbicide test, pre- and postemergence
Assay type in all cases: in vivo
[1] = test system: morningglory (Ipomoea coccinea)
How it was run: (§1)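 Two application timings: at sowing into a soil/sand blend, and on 2–18 cm seedlings in peat-vermiculite potting mix. A non-phytotoxic, surfactant-containing solvent carried the compounds. Plants were compared with controls and rated visually on 0–100 after 13–15 d.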

corn (Zea mays) = test system: corn (Zea mays)
How it was run: as §1

[2] = test system: blackgrass (Alopecurus myosuroides)
How it was run: as §1

[3] = test system: pigweed (Amaranthus retroflexus)
How it was run: as §1

[4] = test system: nutsedge, yellow (yellow nutsedge, Cyperus esculentus)
How it was run: as §1

soybean (Glycine max) = test system: soybean (Glycine max)
How it was run: as §1

[5] = test system: foxtail, giant (giant foxtail, Setaria faberii)
How it was run: as §1

[6] = test system: lambsquarters (Chenopodium album)
How it was run: as §1

[7] = test system: ragweed (common ragweed, Ambrosia elatior)
How it was run: as §1

[8] = test system: waterhemp (common waterhemp, Amaranthus rudis)
How it was run: as §1

[9] = test system: barnyardgrass (Echinochloa crus-galli)
How it was run: as §1

[10] = test system: ryegrass, Italian (Italian ryegrass, Lolium multiflorum)
How it was run: as §1

[11] = test system: galium (catchweed bedstraw, Galium aparine)
How it was run: as §1

[12] = test system: johnsongrass (Sorghum halepense)
How it was run: as §1

[13] = test system: velvetleaf (Abutilon theophrasti)
How it was run: as §1

[14] = test system: wheat (winter wheat, Triticum aestivum)
How it was run: as §1

[15] = Postemergence, 31 g ai/ha, 0 to 100 scale (0 no effect, 100 complete control)
[16] = Postemergence, 125 g ai/ha, scale 0 to 100, 0 is no effect, 100 is complete control
[17] = Postemergence, 250 g ai/ha, scale 0 to 100, 0 no effect, 100 complete control, 13 to 15 d
[18] = postemergence, 62 g ai/ha, scale 0 to 100, 0 no effect, 100 complete control
[19] = Preemergence, 31 g ai/ha, scale 0 to 100, 0 is no effect, 100 is complete control
[20] = Preemergence, 62 g ai/ha, scale 0 to 100, 0 is no effect, 100 is complete control
[21] = Preemergence, 125 g ai/ha, scale 0 to 100, 0 is no effect, 100 is complete control
[22] = Preemergence, 250 g ai/ha, scale 0 to 100 (0 no effect, 100 complete control)

Cc1ccc2ccccc2c1-c1c(O)cnn(C)c1=O [Compound 56]
Morningglory plant response rating [1, 15]: 35 | Plant response rating, Morningglory [1, 16]: 50 | Plant response rating, Morningglory [1, 17]: 50 | Morningglory plant response rating [1, 18]: 50 | Corn plant response rating (corn (Zea mays); [15]): 0 | Plant response rating, Corn (corn (Zea mays); [16]): 0 | Plant response rating, Corn (corn (Zea mays); [17]): 0 | Corn plant response rating (corn (Zea mays); [18]): 0 | Blackgrass plant response rating [2, 15]: 0 | Plant response rating, Blackgrass [2, 16]: 5 | Plant response rating, Blackgrass [2, 17]: 40 | Blackgrass plant response rating [2, 18]: 5 | Pigweed plant response rating [3, 15]: 80 | Plant response rating, Pigweed [3, 16]: 85 | Plant response rating, Pigweed [3, 17]: 90 | Pigweed plant response rating [3, 18]: 75 | Nutsedge, Yellow plant response rating [4, 15]: 0 | Plant response rating, Nutsedge, Yellow [4, 16]: 50 | Plant response rating, Nutsedge, Yellow [4, 17]: 60 | Nutsedge, Yellow plant response rating [4, 18]: 5 | Soybean plant response rating (soybean (Glycine max); [15]): 0 | Plant response rating, Soybean (soybean (Glycine max); [16]): 0 | Plant response rating, Soybean (soybean (Glycine max); [17]): 0 | Soybean plant response rating (soybean (Glycine max); [18]): 0 | Foxtail, Giant plant response rating [5, 15]: 0 | Plant response rating, Foxtail, Giant [5, 16]: 0 | Plant response rating, Foxtail, Giant [5, 17]: 50 | Foxtail, Giant plant response rating [5, 18]: 0 | Lambsquarters plant response rating [6, 15]: 0 | Plant response rating, Lambsquarters [6, 16]: 85 | Plant response rating, Lambsquarters [6, 17]: 85 | Lambsquarters plant response rating [6, 18]: 50 | Ragweed plant response rating [7, 15]: 0 | Plant response rating, Ragweed [7, 16]: 60 | Plant response rating, Ragweed [7, 17]: 60 | Ragweed plant response rating [7, 18]: 0 | Waterhemp plant response rating [8, 15]: 55 | Plant response rating, Waterhemp [8, 16]: 95 | Plant response rating, Waterhemp [8, 17]: 90 | Waterhemp plant response rating [8, 18]: 75 | Barnyardgrass plant response rating [9, 15]: 0 | Plant response rating, Barnyardgrass [9, 16]: 5 | Plant response rating, Barnyardgrass [9, 17]: 10 | Barnyardgrass plant response rating [9, 18]: 5 | Ryegrass, Italian plant response rating [10, 15]: 40 | Plant response rating, Ryegrass, Italian [10, 16]: 65 | Plant response rating, Ryegrass, Italian [10, 17]: 90 | Ryegrass, Italian plant response rating [10, 18]: 60 | Galium plant response rating [11, 15]: 80 | Plant response rating, Galium [11, 16]: 90 | Plant response rating, Galium [11, 17]: 90 | Galium plant response rating [11, 18]: 85 | Johnsongrass plant response rating [12, 15]: 0 | Plant response rating, Johnsongrass [12, 16]: 5 | Plant response rating, Johnsongrass [12, 17]: 10 | Johnsongrass plant response rating [12, 18]: 0 | Velvetleaf plant response rating [13, 15]: 0 | Plant response rating, Velvetleaf [13, 16]: 15 | Plant response rating, Velvetleaf [13, 17]: 70 | Velvetleaf plant response rating [13, 18]: 0 | Wheat plant response rating [14, 15]: 0 | Plant response rating, Wheat [14, 16]: 5 | Plant response rating, Wheat [14, 17]: 5 | Wheat plant response rating [14, 18]: 0

Cc1ccc2ccccc2c1-c1c(O)c(C)nn(C)c1=O [Compound 59]
Morningglory plant response rating [1, 15]: 95 | Plant response rating, Morningglory [1, 16]: 100 | Plant response rating, Morningglory [1, 17]: 100 | Plant response rating, Morningglory [1, 19]: 98 | Plant response rating, Morningglory [1, 20]: 100 | Plant response rating, Morningglory [1, 21]: 100 | Morningglory plant response rating [1, 22]: 100 | Morningglory plant response rating [1, 18]: 100 | Corn plant response rating (corn (Zea mays); [15]): 5 | Plant response rating, Corn (corn (Zea mays); [16]): 65 | Plant response rating, Corn (corn (Zea mays); [17]): 50 | Plant response rating, Corn (corn (Zea mays); [19]): 0 | Plant response rating, Corn (corn (Zea mays); [20]): 20 | Plant response rating, Corn (corn (Zea mays); [21]): 50 | Corn plant response rating (corn (Zea mays); [22]): 65 | Corn plant response rating (corn (Zea mays); [18]): 45 | Blackgrass plant response rating [2, 15]: 65 | Plant response rating, Blackgrass [2, 16]: 85 | Plant response rating, Blackgrass [2, 17]: 90 | Plant response rating, Blackgrass [2, 19]: 85 | Plant response rating, Blackgrass [2, 20]: 90 | Plant response rating, Blackgrass [2, 21]: 90 | Blackgrass plant response rating [2, 22]: 98 | Blackgrass plant response rating [2, 18]: 80 | Pigweed plant response rating [3, 15]: 90 | Plant response rating, Pigweed [3, 16]: 95 | Plant response rating, Pigweed [3, 17]: 98 | Plant response rating, Pigweed [3, 19]: 100 | Plant response rating, Pigweed [3, 20]: 100 | Plant response rating, Pigweed [3, 21]: 100 | Pigweed plant response rating [3, 22]: 100 | Pigweed plant response rating [3, 18]: 95 | Nutsedge, Yellow plant response rating [4, 15]: 65 | Plant response rating, Nutsedge, Yellow [4, 16]: 95 | Plant response rating, Nutsedge, Yellow [4, 17]: 95 | Plant response rating, Nutsedge, Yellow [4, 19]: 80 | Plant response rating, Nutsedge, Yellow [4, 20]: 80 | Plant response rating, Nutsedge, Yellow [4, 21]: 85 | Nutsedge, Yellow plant response rating [4, 22]: 90 | Nutsedge, Yellow plant response rating [4, 18]: 85 | Soybean plant response rating (soybean (Glycine max); [15]): 0 | Plant response rating, Soybean (soybean (Glycine max); [16]): 10 | Plant response rating, Soybean (soybean (Glycine max); [17]): 25 | Plant response rating, Soybean (soybean (Glycine max); [19]): 0 | Plant response rating, Soybean (soybean (Glycine max); [20]): 0 | Plant response rating, Soybean (soybean (Glycine max); [21]): 15 | Soybean plant response rating (soybean (Glycine max); [22]): 25 | Soybean plant response rating (soybean (Glycine max); [18]): 15 | Foxtail, Giant plant response rating [5, 15]: 45 | Plant response rating, Foxtail, Giant [5, 16]: 85 | Plant response rating, Foxtail, Giant [5, 17]: 90 | Plant response rating, Foxtail, Giant [5, 19]: 80 | Plant response rating, Foxtail, Giant [5, 20]: 95 | Plant response rating, Foxtail, Giant [5, 21]: 98 | Foxtail, Giant plant response rating [5, 22]: 100 | Foxtail, Giant plant response rating [5, 18]: 60 | Lambsquarters plant response rating [6, 15]: 90 | Plant response rating, Lambsquarters [6, 16]: 98 | Plant response rating, Lambsquarters [6, 17]: 98 | Plant response rating, Lambsquarters [6, 19]: 70 | Plant response rating, Lambsquarters [6, 20]: 90 | Plant response rating, Lambsquarters [6, 21]: 95 | Lambsquarters plant response rating [6, 22]: 95 | Lambsquarters plant response rating [6, 18]: 95 | Ragweed plant response rating [7, 15]: 90 | Plant response rating, Ragweed [7, 16]: 95 | Plant response rating, Ragweed [7, 17]: 98 | Plant response rating, Ragweed [7, 19]: 90 | Plant response rating, Ragweed [7, 20]: 95 | Plant response rating, Ragweed [7, 21]: 100 | Ragweed plant response rating [7, 22]: 100 | Ragweed plant response rating [7, 18]: 95 | Waterhemp plant response rating [8, 15]: 85 | Plant response rating, Waterhemp [8, 16]: 98 | Plant response rating, Waterhemp [8, 17]: 100 | Plant response rating, Waterhemp [8, 19]: 95 | Plant response rating, Waterhemp [8, 20]: 100 | Plant response rating, Waterhemp [8, 21]: 100 | Waterhemp plant response rating [8, 22]: 100 | Waterhemp plant response rating [8, 18]: 90 | Barnyardgrass plant response rating [9, 15]: 20 | Plant response rating, Barnyardgrass [9, 16]: 55 | Plant response rating, Barnyardgrass [9, 17]: 70 | Plant response rating, Barnyardgrass [9, 19]: 30 | Plant response rating, Barnyardgrass [9, 20]: 70 | Plant response rating, Barnyardgrass [9, 21]: 90 | Barnyardgrass plant response rating [9, 22]: 95 | Barnyardgrass plant response rating [9, 18]: 30 | Ryegrass, Italian plant response rating [10, 15]: 85 | Plant response rating, Ryegrass, Italian [10, 16]: 90 | Plant response rating, Ryegrass, Italian [10, 17]: 95 | Plant response rating, Ryegrass, Italian [10, 19]: 100 | Plant response rating, Ryegrass, Italian [10, 20]: 100 | Plant response rating, Ryegrass, Italian [10, 21]: 100 | Ryegrass, Italian plant response rating [10, 22]: 100 | Ryegrass, Italian plant response rating [10, 18]: 90 | Galium plant response rating [11, 15]: 95 | Plant response rating, Galium [11, 16]: 98 | Plant response rating, Galium [11, 17]: 98 | Plant response rating, Galium [11, 19]: 98 | Plant response rating, Galium [11, 20]: 95 | Plant response rating, Galium [11, 21]: 98 | Galium plant response rating [11, 22]: 98 | Galium plant response rating [11, 18]: 98 | Johnsongrass plant response rating [12, 15]: 5 | Plant response rating, Johnsongrass [12, 16]: 25 | Plant response rating, Johnsongrass [12, 17]: 35 | Plant response rating, Johnsongrass [12, 19]: 5 | Plant response rating, Johnsongrass [12, 20]: 25 | Plant response rating, Johnsongrass [12, 21]: 45 | Johnsongrass plant response rating [12, 22]: 65 | Johnsongrass plant response rating [12, 18]: 5 | Velvetleaf plant response rating [13, 15]: 80 | Plant response rating, Velvetleaf [13, 16]: 90 | Plant response rating, Velvetleaf [13, 17]: 95 | Plant response rating, Velvetleaf [13, 19]: 85 | Plant response rating, Velvetleaf [13, 20]: 90 | Plant response rating, Velvetleaf [13, 21]: 98 | Velvetleaf plant response rating [13, 22]: 100 | Velvetleaf plant response rating [13, 18]: 85 | Wheat plant response rating [14, 15]: 0 | Plant response rating, Wheat [14, 16]: 10 | Plant response rating, Wheat [14, 17]: 15 | Plant response rating, Wheat [14, 19]: 60 | Plant response rating, Wheat [14, 20]: 60 | Plant response rating, Wheat [14, 21]: 75 | Wheat plant response rating [14, 22]: 85 | Wheat plant response rating [14, 18]: 20
